Laboratory results published in patent US3966747A, “9-Hydroxy-6,7-benzomorphans” (Bristol-Myers Company, priority 1974, dated 1976).
Read-outs that look alike come from different tables or passages of the source.

Key:
[1] = test system: phenylquinone induced writhing; assay: Agonist activity: mouse phenylquinone writhing; format: in vivo; settings: for ED50: Mus musculus; for subcutaneous analgesic activity: in words
Experimental: (§1) In vivo testing was conducted on the compounds designated herein as dl-XVIc, l-XVIc tartrate, d-XVIc tartrate, dl-XVIe, dl-XVId and dl-XVIb to determine their agonist and/or antagonist properties. The figures reported are the number of milligrams/ kilogram of body weight of compound that produced an agonist or antagonist effect in 50% of the mice and rats so tested (ED50).
^1 A 50 percent reduction in number of phenylquinone induced writhing
(Siegmund, E. A. et al., Proc. Soc. Biol. & Med. 95, 729; 1957).
(§2) ^6 All values are reported in terms of the free base even though
(§3) administered as an acid addition salt.

[2] = test system: analgesic effect induced by morphine; assay: animal or person; format: in vivo, Rat; settings: for ED50: Rattus norvegicus
From the text: (§4) . The figures reported are the number of milligrams/ kilogram of body weight of compound that produced an agonist or antagonist effect in 50% of the mice and rats so tested (ED50).
mg./kg. sc.) as measured by the rat tail flick procedure (Harris, L. S.
and Pierson, A. K., J. Pharmacol. & Expt. Therap., 143, 141; 1964).
as §2, §3

[3] = In vivo testing for agonist and/or antagonist properties (overall statement); design: species or system mice and rats; settings: in words
Experimental: as §1

[4] = test system: Straub Tail induced by oxymorphone; assay: Antagonist activity: antagonism of Straub Tail induced by oxymorphone; format: in vivo, mice; settings: oxymorphone 2 mg./kg. sc., as free base; for ED50: Mus musculus
Experimental: as §4
^2 Antagonism of Straub Tail induced by oxymorphone (2 mg./kg. sc.) i
as §2, §3

[5] = test system: righting reflex loss induced by oxymorphone; assay: animal or person; format: in vivo, rats; settings: for ED50: Rattus norvegicus
[6] = SC, 50 percent reduction in number of writhings, as free base, read-out: ED50, Agonist Activity, Mouse Phenylquinone Writhing, SC
[7] = SC, morphine 15 mg./kg. sc., as free base, read-out: ED50, Antagonist Activity, Morphine Antagonism Rat Tail Flick, SC
[8] = PO, read-out: ED50, Antagonist Activity, Oxymorphone Straub Tail, PO
[9] = SC, read-out: ED50, Antagonist Activity, Oxymorphone Straub Tail, SC
[10] = SC, oxymorphone 1.5 mg./kg. sc., as free base, read-out: ED50, Antagonist Activity, Oxymorphone Narcosis, SC
[11] = PO, morphine 15 mg./kg. sc., as free base, read-out: ED50, Antagonist Activity, Morphine Antagonism Rat Tail Flick, PO
[12] = PO, 50 percent reduction in number of writhings, as free base, read-out: ED50, Agonist Activity, Mouse Phenylquinone Writhing, PO
[13] = PO, oxymorphone 1.5 mg./kg. sc., as free base, read-out: ED50, Antagonist Activity, Oxymorphone Narcosis, PO
[14] = SC, 50 percent reduction in number of writhings, as free base

Row | Compound | ED50 [1, 6] | ED50 [2, 7] | ED50 [4, 8] | ED50 [4, 9] | ED50 [5, 10] | ED50 [2, 11] | ED50 [5, 13] | other results
1 | C=CC[C@]12CCN(CC3CC3)[C@H](Cc3ccc(O)cc31)[C@@]2(C)O (relative stereo) [dl-XVIb, 2',9β-Dihydroxy-2-cyclopropylmethyl-5-allyl-9α-methyl-6,7-benzomorphan] | > 40 mg/kg | 0.018 mg/kg | 16 mg/kg | 0.12 mg/kg |  |  |  | subcutaneous analgesic activity [1]: weak subcutaneous analgesic activity; parenteral antagonist activity [3]: relatively potent parenteral antagonists
2 | C=CC[C@]12CCN(CC3CCC3)[C@H](Cc3ccc(O)cc31)[C@@]2(C)O (relative stereo) [dl-XVIc, 2',9β-Dihydroxy-2-cyclobutylmethyl-5-allyl-9α-methyl-6,7-benzomorphan] | 0.23 mg/kg | 0.42 mg/kg |  | 0.72 mg/kg | 0.3 mg/kg |  |  | agonist and antagonist activity upon parenteral administration [3]: potent agonist and antagonist activity
3 | C#CCN1CC[C@@]2(CC=C)c3cc(O)ccc3C[C@@H]1[C@@]2(C)O (relative stereo) [dl-XVId, 2',9β-Dihydroxy-2-propargyl-5-allyl-9α-methyl-6,7-benzomorphan] | > 40 mg/kg | 0.14 mg/kg |  | 1.41 mg/kg |  |  |  | subcutaneous analgesic activity [1]: weak subcutaneous analgesic activity; parenteral antagonist activity [3]: relatively potent parenteral antagonists
4 | CCC[C@]12CCN(CC3CC3)[C@H](Cc3ccc(O)cc31)[C@@]2(C)O (relative stereo) [dl-XVIe, 2',9β-Dihydroxy-2-cyclopropylmethyl-5-propyl-9α-methyl-6,7benzomorphan] | > 40 mg/kg | 0.03 mg/kg |  | 0.11 mg/kg | 0.08 mg/kg | 6 mg/kg |  | subcutaneous analgesic activity [1]: weak subcutaneous analgesic activity; parenteral antagonist activity [3]: relatively potent parenteral antagonists
5 | C[C@H]1[C@H]2Cc3ccc(O)cc3[C@]1(C)CCN2CC1CC1 [Cyclazocine] | 0.047 mg/kg | 0.04 mg/kg | 24 mg/kg | 0.81 mg/kg | 0.12 mg/kg | 3.7 mg/kg | 2.7 mg/kg | ED50 [1, 12]: 4 mg/kg
6 | C=CCN1CC[C@]23CCCC[C@H]2[C@H]1Cc1ccc(O)cc13 [Levallorphan] |  | 0.086 mg/kg | 46 mg/kg | 0.29 mg/kg | 0.32 mg/kg | 12.6 mg/kg | 5.4 mg/kg | 
7 | C=CCN1CC[C@]23c4c5ccc(O)c4O[C@H]2[C@@H](O)C=C[C@H]3[C@H]1C5 [Nalorphine] | 0.77 mg/kg | 0.38 mg/kg | > 64 mg/kg |  | 0.58 mg/kg | 22.1 mg/kg | 5.4 mg/kg | ED50 [1, 12]: 15 mg/kg
8 | C=CCN1CC[C@]23c4c5ccc(O)c4O[C@H]2C(=O)CC[C@@]3(O)[C@H]1C5 [Naloxone] | 40 mg/kg |  | 13.1 mg/kg | 0.17 mg/kg |  |  |  | ED50 ([2]; po, read-out: ED50, Antagonist Activity, Morphine Antagonism Rat Tail Flick, PO): 2.7 mg/kg; ED50 ([2]; sc, read-out: ED50, Antagonist Activity, Morphine Antagonism Rat Tail Flick, SC): 0.01 mg/kg; ED50 ([5]; po, read-out: ED50, Antagonist Activity, Oxymorphone Narcosis, PO): 0.95 mg/kg; ED50 ([5]; sc, read-out: ED50, Antagonist Activity, Oxymorphone Narcosis, SC): 0.02 mg/kg
9 | CC(C)=CCN1CCC2(C)c3cc(O)ccc3CC1C2C (stereo not drawn) [Pentazocine] | 4.9 mg/kg |  | 187 mg/kg | 12 mg/kg |  | 82.2 mg/kg | 90 mg/kg | ED50 [1, 12]: 36 mg/kg
10 | C=CCC12CCN(CC3CCC3)C(Cc3ccc(O)cc31)C2(C)O.O=C(O)C(O)C(O)C(=O)O (stereo not drawn) [d-XVIc, d-2',9β-Dihydroxy-9α-methyl-5-allyl-2-cyclobutylmethyl-6,7-benzomorphan tartrate] |  |  |  |  |  |  |  | ED50, Agonist Activity, Mouse Phenylquinone Writhing, SC [1, 14]: > 40 mg/kg; ED50, Antagonist Activity, Oxymorphone Straub Tail, SC ([4]; SC): ~ 40 mg./kg.
11 | l-2', 9β-Dihydroxy-9α-methyl-5-propyl-2-cyclobutyl-6,7 -benzomorphan HCl [l-XVIr] |  |  |  |  |  |  |  | ED50, Agonist Activity, Mouse Phenylquinone Writhing, SC [1, 14]: 0.18 mg/kg; ED50, Antagonist Activity, Morphine Antagonism Rat Tail Flick, SC ([2]; SC, morphine 15 mg./kg. sc., as free base): 0.10 mg/kg; ED50, Antagonist Activity, Oxymorphone Straub Tail, SC ([4]; SC): 1.17 mg/kg
12 | l- 2',9β-Dihydroxy-9α-methyl-5-allyl-2-cyclobutyl-6,7 -benzomorphan tartrate [l-XVIc] |  |  |  |  |  |  |  | ED50, Agonist Activity, Mouse Phenylquinone Writhing, PO ([1]; PO, 50 percent reduction in number of writhings, as free base): 8 mg/kg; ED50, Agonist Activity, Mouse Phenylquinone Writhing, SC [1, 14]: 0.055 mg/kg; ED50, Antagonist Activity, Morphine Antagonism Rat Tail Flick, PO ([2]; rat, in vivo, po): 14.1 mg/kg; ED50, Antagonist Activity, Morphine Antagonism Rat Tail Flick, SC ([2]; rat, in vivo, sc): 0.08 mg/kg; ED50, Antagonist Activity, Oxymorphone Narcosis, SC ([5]; rat, in vivo, sc): 0.05 mg/kg; agonist and antagonist activity upon parenteral administration [3]: potent agonist and antagonist activity; ED50, Antagonist Activity, Oxymorphone Straub Tail, SC ([4]; SC): 0.43 mg/kg
